Data on one compound can be found in patent US6683076B2, “Methods for therapeutic use of glucosylceramide synthesis inhibitors and composition thereof” (Oxford Glyco-Sciences (UK) Ltd, priority 2000, dated 2004).

For one test, the system named is NPC^−/− mice. The experiment in a line: Mouse model of NPC: symptoms and survival. It is filed as in vivo. An excerpt:
Colonies of mutant mice expressing the NPC phenotype have been described (Pentchev et al., 1984, Miyawaki et al., 1986; Kitagawa, 1987), and has been validated by a number of criteria as an authentic model of the disease (Akaboshi et al., 1997). NPC mice display clinical signs of the disease around 6-8 weeks of age with mild intention tremor and ataxia. […] Death results by 10-12 weeks.
Breeding pairs of mice heterozygous for the mutation causing NPC were used to produce offspring that are NPC^−/− homozygotes. These animals, along with their normal wildtype littermates, were used in the following NB-DNJ drug study. Where indicated, NB-DNJ was administered daily by mixing with ground mouse chow. Mice were PCR genotyped 2-3 weeks of age to determine their genetic background.
[…] NPC^−/− mice, with ages ranging from 3-7 weeks, were entered into a treatment study. Seven were treated with 1200 mg/kg/day and six were untreated. […] By 10 weeks of age, all six untreated NPC^−/− mice died or were sacrificed according to veterinary animal care requirements. In contrast, 4 of 7 NPC^−/− mice treated with NB-DNJ lived into their twelfth week. […] In this experiment, untreated NPC^−/− mice survived 65±1 days (average ±SE; n=6), while NPC^−/− mice treated with NB-DNJ at 1200 mg/kg/day survived 88±4 days (n=7).

For another test, the system named is GM2 ganglioside. In words: Immunocytochemistry with anti-GM2 ganglioside antibodies in cat brain. Type of test: in vivo. An excerpt: The following sections highlight the histologic and lipid analysis findings for the study animals. As with humans, there is an increased expression of gangliosides in feline NPC neurons. […] There is a corresponding increase in neuronal ganglioside level and histology changes seen in NPC humans.
Immunocytochemical studies with anti-GM2 ganglioside antibodies were used to probe for ganglioside expression in treated vs. untreated cats in a qualitative manner.

For `CCCCN1C[C@H](O)[C@@H](O)[C@H](O)[C@H]1CO` [NB-DNJ, N-butyldeoxynojirimycin], in the test on NPC^−/− mice (NPC mice, 1200 mg/kg/day), the “Symptoms of neurologic degeneration typical for NPC” value is listed as “qualitatively delaying”. For the same compound, the Increase in longevity with NPC^−/− mice (NPC mice, 1200 mg/kg/day versus untreated) was found to be 26%. Further, the “Mice displaying symptoms of neurologic effects” value with NPC^−/− mice (NPC^−/− mice, 1200 mg/kg/day in chow, by 8 weeks of age, untreated 5 out of 6) is recorded as “none”. Further, the “Mice displaying any degree of symptoms” value in the test on NPC^−/− mice (NPC^−/− mice, 1200 mg/kg/day, by 9 weeks of age, untreated all six) is given as 4 of 7. In the test on NPC^−/− mice (NPC^−/− mice, 1200 mg/kg/day, n=7, untreated 65±1 days), the “Survival (average ±SE)” value was determined as 88 ± 4 days. Also, the “Surviving mice displaying some degree of NPC-induced neural degeneration” value in the test with NPC^−/− mice (NPC^−/− mice, 1200 mg/kg/day, twelfth week) is “Three of these four”. For the same compound, the “Mice that lived into their twelfth week” value in the test with NPC^−/− mice (NPC^−/− mice, 1200 mg/kg/day, all untreated dead by 10 weeks) is recorded as 4 of 7. In the test on GM2 ganglioside (NPC cat treated with NB-DNJ), the “GM2 immunoreactivity in granular cell layer of cerebellum” value is “largely devoid of GM2 immunoreactivity” and the “GM2 labeling in Purkinje cells” value was “qualitatively less GM2 labeling”. In addition, in the test with GM2 ganglioside (NPC cat treated with NB-DNJ, compared to untreated NPC cat), the “GM2 labeling in the cerebral cortex” value is on record as “qualitatively less severe”. Further, the “Accumulation of glucosylceramide-containing glycolipids (e.g. GM2)” value with GM2 ganglioside (NPC cats) was “qualitatively decreases”.
